# From US20260191802A1, “DRUG TO TREAT STIMULANT ADDICTION” (SINGLE DOSE THERAPEUTICS, INC., priority 2023, published 2026)
# What was measured:
# [1] = Aqueous equilibrium solubility, slurry in water, HPLC of supernatant; type: physicochemical; conditions: 24 hours of equilibration at room temperature
# [2] = Dynamic Vapor Sorption (DVS) isothermal water sorption and desorption; type: physicochemical; conditions: 25° C. and 80% RH
# Procedure: The solubility advantage imparted by a specific salt form of bromantane compared to the free base form cannot be predicted with certainty because the interactions of the counterion with the therapeutic agent and dissolution medium are unique and complex. Empirical testing is necessary. Dynamic Vapor Sorption (DVS) testing was performed to compare the isothermal water sorption and desorption behaviors of bromantane free base Form I [FIG. 22] with that of bromantane hydrochloride Form I [FIG. 23].
# [3] = Onset of therapeutic effect after oral administration; type: in vivo; conditions: orally administered
# Source text: The objective of the present disclosure is to improve the standard of care in treating mental disorders, such as StUD, by facilitating extinction learning through the administration of a therapeutically effective amount of bromantane or an analogue thereof. While bromantane or an analogue of bromantane can be administered uncompounded, administering a pharmaceutical preparation that ensures consistent absorption and fosters patient adherence to the treatment regimen is advantageous. For example, the onset of therapeutic effect for orally administered crystalline bromantane free base is slow (2-3 hours) due to solubility-limited absorption and high first-pass extraction. Preparations that improve bromantane's solubility or bioavailability to produce a faster onset of therapeutic effect are advantageous for addressing acute incentive salience expeditiously in the treatment of StUD, thereby increasing the likelihood of patient adherence to the treatment regimen and reducing the likelihood of relapse. Accordingly, the present disclosure also provides novel, advantageous pharmaceutical preparations of bromantane and their methods of use.
# [4] = tested on: participants who had self-reported drug dependencies to a drug of concern; assay: Exploratory study of bromantane intervention in participants with self-reported drug dependencies; type: in vivo, human
# Procedure: To investigate the utility of bromantane as a single-agent pharmacological intervention to interrupt stimulant dependence, an exploratory study was conducted with participants who had self-reported drug dependencies to a drug of concern. The intervention consisted of Test Article (bromantane) administered at a dose of 50 mg qd po for 7 days, starting on the first day of Week 1 of the study. Results from the exploratory study are summarized in [FIG. 2]. The number of days the drug of concern was used by the participant during each 1-week period during the 4-week study is shown in the Drug Dependency column.
# In addition to being an effective single-agent pharmacological intervention to interrupt stimulant dependence, it was discovered that bromantane has utility as a treatment for certain comorbidities that are specifically underpinned by maladaptive learning, such as occupational burnout exacerbated by conditioned fear responses and attention-deficit/hyperactivity disorder arising from inhibitory control dysfunction. […] Therefore, the present disclosure also provides novel therapeutic methods of use for bromantane to facilitate extinction learning in the treatment of mental disorders or syndromes.
# [5] = participants with cocaine or amphetamine dependencies, 50 mg qd po for 7 days, 4-week study
Structure (SMILES),equilibrium solubility in water (solution state concentration of bromantane) [1],hygroscopicity (water gain by DVS) [2],onset of therapeutic effect [3] [h],"cravings and withdrawal syndrome associated with addiction to stimulants of abuse ([4]; amphetamine, methamphetamine, cocaine)",counterproductive behaviors and thought patterns triggered by conditioned stimuli ([4]; analysis of subjective effects reported by participants),secondary dependence ([4]; in vivo),"opioid use ([4]; participant with opioid dependence, during the period of intervention, 50 mg qd po for 7 days)","abstinence from drug of concern [4, 5]","duration of maintained abstinence [4, 5]","caffeine use ([4]; participants, 50 mg qd po for 7 days)",insomnia caused by rumination ([4]; self-reported by participants),temperament (threshold for irritability or anger) ([4]; self-reported by participants)
Brc1ccc(NC2C3CC4CC(C3)CC2C4)cc1 (stereo not drawn) [bromantane free base Form I],below the detection limit,non-hygroscopic (x<0.2% w/w gain at 25 °C and 80% RH),2 to 3,,,,,,,,,
Brc1ccc(NC2C3CC4CC(C3)CC2C4)cc1 (stereo not drawn) [bromantane],,,,eliminates or significantly reduces,pronounced reduction,without leading to secondary dependence,reduction in opioid use,achieved abstinence on the first day of intervention,maintain abstinence for approximately three weeks,unplanned reduction in caffeine use,Alleviation of insomnia,improved temperaments
